Experimental data published in US20230168243A1, “METHODS FOR DIAGNOSING IMMEDIATE HYPERSENSITIVY REACTION” (Universiteit Antwerpen, priority 2020, published 2023).

Experiments:
[1] = system: cultured human donor mast cells (dMCs); test: Mast cell activation test (MAT): CD63 upregulation on donor mast cells passively sensitized with patients' sera (dMCIgE+), flow cytometry; type: cell-based; settings: for CD63 upregulated after activation / CD63 upregulation: dMCIgE+ sensitized with patients' sera, mean; for CD63 upregulated after activation: first donor, 20 min; for CD63 upregulation: second donor; for up-regulation of CD63 (% of the cells): donor MCs passively sensitized with serum containing chlorhexidine-reactive IgE antibodies, FIG. 7
Description: Human MCs were cultured as described in Cop N, et al. Influence of IL-6, IL-33, and TNF-alpha on human mast cell activation: Lessons from single cell analysis by flow cytometry. Cytometry B Clin Cytom 2018; 94:405-11. Briefly, peripheral blood mononuclear cells were isolated from 50 mL peripheral blood from healthy volunteers. CD34^+ progenitor cells were enriched using the EasySep Human CD34 Selection Kit (Stemcell Technologies, Vancouver, Canada) according to the manufacturer's instructions. Isolated CD34^+ progenitor cells were cultured in a serum-free methylcellulose-based medium (MethoCult SF H4236, Stemcell Technologies) supplemented with penicillin (100 units/mL, Life Technologies, Waltham, USA), streptomycin (100 μg/mL, Life Technologies), low-density lipoprotein (LDL, 10 μg/mL, Stemcell Technologies), 2-mercaptoethanol (55 μmol/L, Life Technologies), stem cell factor (SCF, 100 ng/mL, Miltenyi Biotec, Bergisch Gladbach, Germany), interleukin-3 (IL-3, 100 ng/mL, PeproTech, Rocky Hill, USA) and interleukin-6 (IL-6, 50 ng/mL, Miltenyi Biotec) during 4-5 weeks. Participants gave a written informed consent as approved by the Ethical Committee of the University Hospital of Antwerp (Belgium B300201316408).
Degranulation of dMC was measured by overnight passively sensitizing the cells with serum at 37° C. in a humidified CO2-incubator. Next, dMC^IgE+ were centrifuged (500 g, 5 minutes, 20° C.) and the cell pellet was resolved in pre-warmed Tyrode's buffer (Sigma-Aldrich, St. Louis, USA) at a concentration of 0.5×10^6 cells/mL. Thereafter, 100 μL of the cells were pre-incubated with IL-33 (100 ng/mL) (Peprotech) for 20 minutes on 37° C. Subsequently, these pre-incubated dMC^IgE+ were stimulated with 100 μL Tyrode's buffer as a negative control or 100 μL of CHX (Sigma-Aldrich) during 20 minutes at 37° C. The final concentrations of CHX were: 0.05, 5, 500, 50 000 ng/mL, i.e. 0.0028, 0.28, 28; 2800 nM). Reactions were stopped by placing the cells on ice and removing the supernatants (500 g, 5 minutes, 4° C.). Cells were stained with monoclonal anti-human CD117-APC (clone 104D2, BD Biosciences, Erembodegem, Belgium), CD203c-PeCy7 (clone NP4D6, eBioscience) and CD63-FITC (clone H5C6, BD Bioscience) for 20 minutes at 4° C. Finally, cells were washed and resolved in PBS with 0.1% sodium azide and measured. Degranulation of dMCs was measured as surface upregulation of the lysosomal degranulation marker CD63. The mast cell activation test is repeated on dMCs of two different volunteers.
Flow cytometric analysis was performed on a FACSCanto II flow cytometer (BD Immunocytometry Systems, San Jose, Calif.) equipped with three lasers (405 nm, 488 nm and 633 nm). Correct compensation settings for antibodies conjugated with fluorochromes were performed using BD CompBeads (BD Biosciences). Flow cytometric data were analyzed using Kaluza Analysis 1.5 software (Beckman Coulter, USA). Unstained samples were used to set a marker between positive and negative cells according to the 99th percentile. A fluorescence minus one (FMO) was used to set a marker between positive and negative cells. Mast cells were gated out as CD117 and CD203c positive cells. Results are expressed as mean and range.
Human MCs were obtained as described in Example 1. Sera from patients with perioperative anaphylaxis were selected based on the presence of sIgE against rocuronium >0.13 kUa/L and a positive skin test rocuronium. MC activation was determined as described in Example 1 and cells were stimulated during 3 and 20 minutes, preferably 20 minutes, with final concentrations of rocuronium of 1.64, 16.4, 164 and 1640 μM.
Human MCs were obtained as described in Example 1.

[2] = system: cultured human donor mast cells (dMCs); test: Direct mast cell activation: CD63 upregulation on donor mast cells not passively sensitized with serum (dMCIgE-); type: cell-based; settings: for CD63 upregulation / activation of unsensitized (unloaded) mast cells: MCs not passively sensitized with patients' serum

Row | Compound | CD63 upregulation (degranulation) ([1]; dMC sensitized with sera of patients with isolated sIgE CHX (negative skin test and BAT)) | CD63 upregulated after activation ([1]; CHX 0.05 ng/mL (0.0028 nM), printed range 1-22) | CD63 upregulated after activation ([1]; CHX 5 ng/mL (0.28 nM), printed range 1-76) | CD63 upregulated after activation ([1]; CHX 500 ng/mL (28 nM), printed range 6-86) | CD63 upregulated after activation ([1]; CHX 50000 ng/mL (2800 nM), printed range 0-88) | CD63 upregulation ([1]; CHX 0.05 ng/mL (0.0028 nM), printed range 0-21) | CD63 upregulation ([1]; CHX 5 ng/mL (0.28 nM), printed range 2-44) | CD63 upregulation ([1]; CHX 500 ng/mL (28 nM), printed range 3-64) | CD63 upregulation ([1]; CHX 50000 ng/mL (2800 nM), printed range 0-73) | up-regulation of CD63 (% of the cells) [1] | CD63 upregulation / activation of unsensitized (unloaded) mast cells [2] | CD63 upregulation / activation of unsensitized (unloaded) mast cells ([2]; listed as CHX) | CD63 upregulation after stimulation ([1]; dMCIgE+ sensitized with serum of a rocuronium-allergic patient, rocuronium end concentration 164 μM, representative plot FIG. 6) | CD63 upregulation after stimulation ([2]; dMCIgE- not passively sensitized, rocuronium end concentration 164 μM, representative plot FIG. 6)
1 | [H]/N=C(\N/C(=N/[H])NCCCCCCNC(=N)NC(=N)Nc1ccc(Cl)cc1)Nc1ccc(Cl)cc1 [chlorhexidine, 1:6-di(4-chlorophenyldiguanido)-hexane] | no upregulation of CD63 | 1% | 10% | 57% | 31% | 2% | 7% | 30% | 45% | 18% | did not upregulate CD63 | could not elicit activation/degranulation | – | –
2 | CCCCCCCCN=c1ccn(CCCCCCCCCCn2ccc(=NCCCCCCCC)cc2)cc1 [octenidine] | – | – | – | – | – | – | – | – | – | 18% | did not upregulate CD63 | – | – | –
3 | C=CC[N+]1([C@H]2C[C@H]3[C@@H]4CC[C@H]5C[C@H](O)[C@@H](N6CCOCC6)C[C@]5(C)[C@H]4CC[C@]3(C)[C@H]2OC(C)=O)CCCC1 [rocuronium] | – | – | – | – | – | – | – | – | – | – | – | – | 24% | 0%
